Assay results from patent publication US11897969B2, “Inhibition of oxidation-specific epitopes to treat ischemic reperfusion injury” (The Regents of the University of California, priority 2017, dated 2024).
“And” between values parts separate entries of the source, which are not always exact repeats. Equal entries are not always repeated.

B1: E06-scFv: single chain variable antibody fragment of E06 (heavy and light variable regions joined by 15-amino acid linker), expressed in transgenic mice (protein)
scFv: DAAQPARRAVRSLDIVMTQSPSSLSVSAGKKVTISCTASESLYSSKHKVHYLAWYQKKPEQSPKLLIYGASNRYIGVPDRFTGSGSGTDFTLTISSVQVEDLTHYYCAQFYSYPLTFGAGTKLEIKGGGGSGGGGSGGGGSEVKLVESGGGLVQPGGSLRLSCATSGFTFSDFYMEWVRQAPGKRLEWIAASRNKANDYTTEYADSVKGRFIVSRDTSQSILYLQMNALRAEDTAIYYCARDYYGSSYWYFDVWGAGTTVTVSSRGGPEQKLISEEDLNSAVD

Assays:
[1] = tested on: neonatal rat cardiomyocytes (NNCM); assay: In vitro OxPC treatment and assessment of cell viability (calcein-AM / ethidium homodimer-1); type: cell-based; settings: 4 hours
Excerpt: Cell culture of rat cardiomyocytes. All animal experiments performed conform to the NIH guidelines regarding animal experimentation. Neonatal rat cardiomyocytes (NNCM) were isolated from 1-2 day old Sprague-Dawley rat pups. Whole hearts were excised from rat pups by midline sternotomy after cervical dislocation. Hearts were washed and minced to adequately break up macroscopic structures before re-washing with cold filter sterilized phosphate buffered saline (PBS) containing 10 g/L of glucose to remove red blood cells and debris. Repeated enzymatic digestion of heart fragments was performed with collagenase (740U), trypsin (370U), and DNase (2880U) (Worthington Biochemical) agitating at 35° C. for three 10-minute and three 7-minute digestions. Digested supernatant solutions were centrifuged into a cell pellet and then separation of cell types using a Percoll® (GE Healthcare) gradient of 1.05, 1.06, and 1.082 g/mL allowed for a layer enriched with myocytes to be isolated. To remove fibroblasts, the cells were pre-plated on non-coated 150 mm culture plates for 45 min. Purified NNCM (95% pure by sarcomere staining) were then transferred to sterile tissue culture plates at a cell density of 1.75×10^6/35-mm plate. Collagen-coated glass coverslips in 24-well tissue culture plates were used for microscopy analysis and NNCM were plated at 3.2×10^5/well. Cells were incubated overnight in Dulbecco's Modified Eagle Medium/Ham's nutrient mixture F-12 (1:1) containing 2 mM glutamine, 3 mM NaHCO3, 15 mM HEPES, and […] gentamycin (DMEM/F12) plus 10% fetal bovine serum (FBS). DMEM/F12 with 10% FBS was changed to serum-free DMEM/F12 (DFSF) the following day. Control solution consisted of 140 mM NaCl, 6 mM KCl, 1.25 mM CaCl2, 6 mM HEPES, and 10 mM D-glucose buffered to pH 7.4, ischemic solution was buffered to pH 6.0, and consisted of the same components, except 8 mM KCl was added and no D-glucose was added. The ischemic buffer was purged of oxygen by bubbling 95% N2 and 5% CO2 gas into the medium for 1 hour before being applied to cells. A hypoxic chamber designed for storage in a 37° C. water jacketed tissue culture incubator was used to maintain an atmosphere of 95% N2 and 5% CO2 gas conditions for 18 hours overnight. Reperfusion was achieved by applying control buffer to cells for 4 hours in a normal culture incubator. After the treatment, cells were scraped off into a small portion of PBS. Cardiomyocyte cell lysates were subjected to Western Blot analysis.
In vitro OxPC treatment and assessment of cell viability. Fresh DFSF was applied to NNCM on glass cover-slips and supplemented with 1, 2, 5, and 10 μM concentrations of OxPL lipids sonicated into PBS, forming micelles. Four OxPL species, POVPC, PONPC, PGPC, and PAzPC were applied to NNCM plates for 4 hours and compared to a non-oxidized PC standard PSPC. Plates were then washed with PBS before NNCM were analyzed for cell viability using vital dyes, calcein-acetoxymethyl ester (AM) and ethidium homodimer-1 (Invitrogen). Mitochondrial permeability after exposure to OxPL molecules was monitored by fluorescence microscopy using a solution of calcein-AM fluorescent dye with cobalt chloride (CoCl2) applied to cardiomyocytes cultured on glass coverslips.

[2] = tested on: neonatal rat cardiomyocytes (NNCM); assay: Neutralization of OxPL by E06: OxPL-induced cardiomyocyte cell death with E06 co-treatment; type: cell-based; settings: 5 μM lipid alone, 2 hrs
Excerpt: Cell culture of rat cardiomyocytes. All animal experiments performed conform to the NIH guidelines regarding animal experimentation. Neonatal rat cardiomyocytes (NNCM) were isolated from 1-2 day old Sprague-Dawley rat pups. Whole hearts were excised from rat pups by midline sternotomy after cervical dislocation. Hearts were washed and minced to adequately break up macroscopic structures before re-washing with cold filter sterilized phosphate buffered saline (PBS) containing 10 g/L of glucose to remove red blood cells and debris. Repeated enzymatic digestion of heart fragments was performed with collagenase (740U), trypsin (370U), and DNase (2880U) (Worthington Biochemical) agitating at 35° C. for three 10-minute and three 7-minute digestions. Digested supernatant solutions were centrifuged into a cell pellet and then separation of cell types using a Percoll® (GE Healthcare) gradient of 1.05, 1.06, and 1.082 g/mL allowed for a layer enriched with myocytes to be isolated. To remove fibroblasts, the cells were pre-plated on non-coated 150 mm culture plates for 45 min. Purified NNCM (95% pure by sarcomere staining) were then transferred to sterile tissue culture plates at a cell density of 1.75×10^6/35-mm plate. Collagen-coated glass coverslips in 24-well tissue culture plates were used for microscopy analysis and NNCM were plated at 3.2×10^5/well. […]
In vitro OxPC treatment and assessment of cell viability. […] Plates were then washed with PBS before NNCM were analyzed for cell viability using vital dyes, calcein-acetoxymethyl ester (AM) and ethidium homodimer-1 (Invitrogen). Mitochondrial permeability after exposure to OxPL molecules was monitored by fluorescence microscopy using a solution of calcein-AM fluorescent dye with cobalt chloride (CoCl2) applied to cardiomyocytes cultured on glass coverslips.
To evaluate the effect of neutralizing OxPL on cell viability, the IgM E06 antibody was used at a concentration of 10 μg/mL within cell culture. […] Cell viability was assessed as described above. […] Images were assessed using Adobe Photoshop CS5.1 Software.

[3] = Binding properties of E06-scFv secreted into HEK293 culture supernatant; settings: E06-scFv in HEK293 culture supernatant
Excerpt: (§1) Generation and characterization of E06-scFv transgenic mice. The generation of transgenic C57BL/6 mice expressing the T15/E06 idiotype as a single chain variable antibody fragment—termed E06-scFv-Tg. In brief, the cDNAs encoding E06 variable regions of the heavy and light chains were linked with a 15-amino acid peptide by overlapping PCR, and cloned into an expression vector pSecTag2A (Invitrogen) containing a murine Ig kappa-chain leader sequence for secretion and c-myc and polyHis as epitope tags. […] The same construct was then cloned into the liver-specific expression vector pLiv7 and used to generate transgenic (Tg) mice in the C57BL/6 background expressing the E06-scFv transgene driven by the apoE promoter. Offspring were screened both for plasma E06-scFv titer and integration of the transgene by PCR amplification of the tail DNA. The transgenic E06-scFv founder lines were bred with each other to generate “homozygous” transgenic mice, and in turn, these were crossed into Ldl^−/− mice on the C57BL/6 background. All animals were genotyped for E06-scFv and Ldlr^−/−, respectively and plasma assayed to confirm expression of the E06-scFv by immunoassay. The E06-scFv mRNA was strongly expressed in liver, peritoneal macrophages and spleen, and to a lesser extent in heart. Plasma levels of the E06-scFv averaged 20-30 μg/ml in these studies.

[4] = Plasma levels of E06-scFv in transgenic mice (immunoassay); type: in vivo, mouse; settings: transgenic mice constitutively expressing E06-scFv (apoE promoter)
Excerpt: as §1

E06-scFv-Tg/Ldlr−/− mice = assay: Myocardial ischemia-reperfusion (LAD ligation), histologic infarct size in E06-scFv-Tg/Ldlr−/− mice; type: in vivo, mouse
Excerpt: as §1
Adult (18-20-week-old) E06-scFv-Tg/Ldlr^−/− mice or Ldlr^−/− mice weighing 16-40 grams, were anesthetized with a mixture of Ketamine (50 mg/kg) and Xylazine (5 mg/kg) and 1.0% isoflurane. Mice were intubated with a pressure ventilator (Kent Scientific, PhysioSuite. Peak inspiration pressure was ˜13 cm H2O and inspiration rate 100-110. The skin over the mid thorax was shaved and cleansed with Betadine or Chlorhexidine solution. A skin incision was made from the midsternal line toward the left armpit, and the chest opened with a 1 cm lateral cut along the left side of the sternum, cutting between the 3rd and 4th ribs to expose the left ventricle of the heart. The ascending aorta and main pulmonary artery were identified; the left anterior descending (LAD) coronary artery was located as it traverses the anterior wall of the heart, between the left and right ventricles. LAD coronary artery occlusion was performed by tying an 8-0 prolene suture ligature on a piece of 2-0 silk suture. Occlusion of the artery was assessed by blanching of the territory of perfusion of the LAD coronary artery, along with acute ST segment elevation on limb-lead electrocardiographic leads. Following an ischemic period of 60 minutes, the suture was removed from around the LAD coronary artery. […]
Histologic assessment of infarct size. […] The sizes of AAR and infarct area (IA) were quantified by computerized planimetry using ImageJ. […]

[5] = E06-scFv-Tg/Ldlr−/− mice, 7 days after 60 minutes LAD ischemia and reperfusion
[6] = E06-scFv-Tg/Ldlr−/− vs Ldlr−/− mice, 7 days after IR

Molecule | cell death ([1]; 1 μM lipid) [%] | cell death ([1]; 2 μM lipid) [%] | cell death ([1]; 5 μM lipid) [%] | cell death without E06 [2] [%] | cell death ([1]; 10 μM lipid) [%] | binding properties compared with intact E06 [3] | plasma levels of E06-scFv [4] [ng/mL] | IA/AAR (infarct area as percentage of area at risk) (E06-scFv-Tg/Ldlr−/− mice; [5]) [%] | IA/LV (infarct area as percentage of left ventricle) (E06-scFv-Tg/Ldlr−/− mice; [5]) [%] | smaller IA/AAR compared to Ldlr−/− mice (E06-scFv-Tg/Ldlr−/− mice; [6]) [%] | smaller IA/LV compared to Ldlr−/− mice (E06-scFv-Tg/Ldlr−/− mice; [6])
CCCCCCCCCCCCCCCC(=O)OC[C@H](COP(=O)([O-])OCC[N+](C)(C)C)OC(=O)CCCCCCCC=O [PONPC, 1-palmitoyl-2-(9-oxo)nonanoyl-sn-glycero-3-phosphocholine] | 28.3±8.9 | 42.0±6.2 | 70.0±18.6 | 25.3±3.4 | – | – | – | – | – | – | –
CCCCCCCCCCCCCCCC(=O)OC[C@H](COP(=O)([O-])OCC[N+](C)(C)C)OC(=O)CCCC=O [POVPC, 1-palmitoyl-2-(5-oxovaleroyl)-sn-glycero-3-phosphocholine] | – | – | – | 22.6±4.14 | 68.6±14.8 | – | – | – | – | – | –
CCCCCCCCCCCCCCCCCC(=O)O[C@H](COC(=O)CCCCCCCCCCCCCCC)COP(=O)([O-])OCC[N+](C)(C)C [PSPC] | 7.6±5.1 | 9.1±10.5 | 10.5±1.6 | 6.2±1.6 | 5.5±1.6 | – | – | – | – | – | –
B1 | – | – | – | – | – | mimic those of the intact E06 | 20000 to 30000 | 47.7±17.6 | 16.3±7.5 | 65.9 | 58.8% and 58.5%
